Target: Ras-related protein Rab-2A (Canis lupus familiaris, UniProt P61105)
Experiment: Rab2 wildtype GTP-binding inhibitors, SAR follow-up, biochemical, additional analogs, bead-based flow cytometry, multiplex (AID 2046)
Conditions: not given

Sequence of Ras-related protein Rab-2A (P61105 whole entry): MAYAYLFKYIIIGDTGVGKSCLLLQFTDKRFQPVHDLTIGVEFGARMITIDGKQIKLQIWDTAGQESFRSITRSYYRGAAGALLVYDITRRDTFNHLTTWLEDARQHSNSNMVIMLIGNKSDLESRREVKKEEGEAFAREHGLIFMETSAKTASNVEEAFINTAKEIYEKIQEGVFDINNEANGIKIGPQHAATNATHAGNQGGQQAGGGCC

EC50 | SMILES
30 µM | O=C1Nc2c(Cl)cccc2C1=C1Nc2ccccc2C1=O
30 µM | O=C1Nc2c(Br)cccc2C1=C1Nc2ccccc2C1=O
30 µM | O=C1Nc2c(F)cccc2C1=C1Nc2ccccc2C1=O
30 µM | O=C1NC(=O)/C(=C2/C(=O)Nc3ccccc32)N1
30 µM | O=C1Nc2ccc(Br)cc2C1=C1Nc2ccccc2C1=O
30 µM | O=C1Nc2ccccc2/C1=C1/Nc2ccccc2C1=O [2-[(3Z)-2-oxo-2,3-dihydro-1H-indol-3-ylidene]-2,3-dihydro-1H-indol-3-one]
30 µM | O=C1N=c2ccccc2=C1c1[nH]c2ccccc2c1NO [3-[3-(hydroxyamino)-1H-indol-2-yl]-2-indolone]
65.2 µM | O=C1N=c2ccc(Br)cc2=C1c1[nH]c2ccccc2c1NO [5-bromanyl-3-[3-(oxidanylamino)-1H-indol-2-yl]indol-2-one]
65.8 µM | O=C1N=c2c(Br)cccc2=C1c1[nH]c2ccccc2c1NO [7-bromanyl-3-[3-(oxidanylamino)-1H-indol-2-yl]indol-2-one]
30 µM | O=C1N=c2c(Cl)cccc2=C1c1[nH]c2ccccc2c1NO [7-chloro-3-[3-(hydroxyamino)-1H-indol-2-yl]-2-indolone]
30 µM | O=C1N=c2c(F)cccc2=C1c1[nH]c2ccccc2c1NO [7-fluoro-3-[3-(hydroxyamino)-1H-indol-2-yl]-2-indolone]
30 µM | O=C1NC(=S)N/C1=C1\C(=O)Nc2ccccc21 [(3Z)-3-(5-oxo-2-sulfanylideneimidazolidin-4-ylidene)-1H-indol-2-one]
30 µM | COc1ccc2cc([C@H](C)C(=O)O)ccc2c1 [UNM-0000306098]
30 µM | C[C@@H](C(=O)O)c1cccc(Oc2ccccc2)c1 [calcium;2-(3-phenoxyphenyl)propanoic acid;hydrate]
1.74 µM | COc1ccc2cc([C@@H](C)C(=O)O)ccc2c1 [sodium;(2R)-2-(6-methoxy-2-naphthalenyl)propanoate]

Same assay, conditions: inactive by the depositor's call

EC50 | SMILES
30 µM | O=C1Nc2cccc(Br)c2/C1=C1/Cc2ccccc2C1=O
30 µM | COc1ccc(S(=O)(=O)n2c(N)c(C#N)c(-c3ccccc3)c2C(=O)c2ccc(Br)cc2)cc1
30 µM | O=[N+]([O-])c1ccc(C#Cc2ccccc2)cc1
30 µM | O=C(C#Cc1ccccc1)c1ccc(OC(F)(F)F)cc1
30 µM | COc1ccc(C(=O)C#Cc2ccccc2)cc1 [1-(4-methoxyphenyl)-3-phenyl-2-propyn-1-one]
30 µM | O=C(C#Cc1ccccc1)c1ccc([N+](=O)[O-])cc1 [1-(4-nitrophenyl)-3-phenyl-2-propyn-1-one]
30 µM | CC(C(=O)O)c1cccc(C(=O)c2ccccc2)c1 (configuration not stated) [2-(3-benzoylphenyl)propanoic acid]
30 µM | COc1ccc2cc(CC(=O)O)ccc2c1 [2-(6-methoxynaphthalen-2-yl)ethanoic acid]
30 µM | CC(=O)Oc1ccccc1C(=O)O [2-(acetyloxy)benzoic acid]
30 µM | CCCCS(=O)(=O)n1c(N)c(C#N)c(-c2cc(OC)c(OC)c(OC)c2)c1C(=O)c1ccccc1 [2-amino-5-benzoyl-1-butylsulfonyl-4-(3,4,5-trimethoxyphenyl)-3-pyrrolecarbonitrile]
30 µM | COc1ccc(S(=O)(=O)n2c(N)c(C#N)c(-c3cncc(Br)c3)c2C(=O)c2ccccc2)cc1 [2-amino-5-benzoyl-4-(5-bromo-3-pyridinyl)-1-(4-methoxyphenyl)sulfonyl-3-pyrrolecarbonitrile]
30 µM | COc1ccc(-c2c(C#N)c(N)n(S(C)(=O)=O)c2C(=O)c2ccccc2)cc1Br [2-azanyl-4-(3-bromanyl-4-methoxy-phenyl)-1-methylsulfonyl-5-(phenylcarbonyl)pyrrole-3-carbonitrile]
30 µM | COc1cc(-c2c(C#N)c(N)n(S(=O)(=O)c3c(C(C)C)cc(C(C)C)cc3C(C)C)c2C(=O)c2ccccc2)cc(OC)c1OC [2-azanyl-5-(phenylcarbonyl)-4-(3,4,5-trimethoxyphenyl)-1-[2,4,6-tri(propan-2-yl)phenyl]sulfonyl-pyrrole-3-carbonitrile]
30 µM | O=C(C#Cc1ccccc1)c1cccnc1 [3-phenyl-1-pyridin-3-ylprop-2-yn-1-one]
30 µM | COC(=O)c1ccc(C(=O)C#Cc2ccccc2)cc1 [4-(1-oxo-3-phenylprop-2-ynyl)benzoic acid methyl ester]
30 µM | N#Cc1ccc(C(=O)C#Cc2ccccc2)cc1 [4-(3-phenylprop-2-ynoyl)benzenecarbonitrile]
30 µM | O=C1Nc2c(Br)cccc2/C1=C1/Cc2ccccc2C1=O [(3E)-7-bromo-3-(3-oxo-1H-inden-2-ylidene)-1H-indol-2-one]
30 µM | CC(C)Cc1ccc([C@H](C)C(=O)O)cc1 [(S)-2-(4-Isobutyl-phenyl)-propionic acid]
30 µM | O=C1Nc2ccccc2/C1=C1/Cc2ccccc2C1=O [UNM-0000305763]
30 µM | N#Cc1c(-c2ccc(Cl)cc2)c(C(=O)c2ccccc2)n(S(=O)(=O)c2ccc([N+](=O)[O-])cc2)c1N [UNM-0000305780]
30 µM | COc1ccc(S(=O)(=O)n2c(N)c(C#N)c(-c3cc(Br)c(OC)c(OC)c3)c2C(=O)c2ccccc2)cc1 [UNM-0000305782]
30 µM | O=C(C#Cc1ccccc1)c1ccccc1[N+](=O)[O-] [UNM-0000306038]
30 µM | O=C(C#Cc1ccccc1)c1ccccc1 [UNM-0000306039]
30 µM | O=C(C#Cc1ccccc1)c1ccc(Cl)cc1 [UNM-0000306055]
30 µM | O=C(C#Cc1ccccc1)c1ccc(F)cc1 [UNM-0000306059]
30 µM | CC1=C(CC(=O)O)c2cc(F)ccc2/C1=C/c1ccc([S+](C)[O-])cc1 (configuration not stated) [UNM-0000306136]
30 µM | CSc1ccc(/C=C2/C(C)=C(CC(=O)O)c3cc(F)ccc32)cc1 [{6-Fluoro-2-methyl-3-[1-(4-methylsulfanyl-phenyl)-meth-(E)-ylidene]-3H-inden-1-yl}-acetic acid]

— BindingDB's records for doi:10.7270/Q2V40SNS (Nmmlsc, 2009)
